Reference: PMC2912373, “Low-Density Lipoprotein Receptor-Related Protein 1 (LRP1) Mediates Neuronal Aβ42 Uptake and Lysosomal Trafficking” (PLoS ONE, 2010)

What was measured:
[1] = tested on: N2a-mLRP4 cells; test: Steady-state FAM-Aβ42 accumulation (continuous feeding), FACS; format: cell-based, mouse; details: for levels of FAM-Aβ42 in N2a-mLRP4 cells compared to N2a-pcDNA3 cells: 500 nM FAM-Aβ42, 37°C, n = 3
Experimental: To determine whether internalized Aβ42 is accumulated over time, we performed continuous feeding experiments of FAM-Aβ42 in N2a-pcDNA3 and N2a-mLRP4 cells. The steady-state levels and localization of Aβ42 were determined by flow cytometry and confocal microscopy, respectively (Fig. 2). Cells were incubated with 500 nM FAM-Aβ42 at 37°C for 24, 48 or 72 h and the content of fluorescence per cell was quantified by FACS and presented as a percentage of the levels in N2a-pcDNA3 at each time point (Fig. 2A). […] Therefore, we analyzed the subcellular localization of internalized FAM-Aβ42 by confocal microscopy in N2a cells treated as before and analyzed co-localization with lysosomes. For the visualization of acidic organelles, a brief incubation with LysoTracker Red at the end of the experiment was included (Fig. 2B). After 24 h of incubation, a small amount of cell-associated Aβ42 can be detected in N2a-mLRP4 cells.
Figure 2 Increased accumulation of intracellular Aβ42 within lysosomes in LRP1 minireceptor-expressing cells. A, increased Aβ42 accumulation in LRP1 minireceptor-expressing cells. N2a-mLRP4 and N2a-pcDNA3 cells were treated with 500 nM of FAM-Aβ42 at 37°C for 24, 48 and 72 h, and steady-state levels of intracellular Aβ42 were determined by flow cytometric analyses of pronase-treated cells as described in the Experimental Procedures. […] B, increased co-localization of intracellular Aβ42 and lysosomes in N2a-mLRP4 cells. N2a-pcDNA3 and N2a-mLRP4 cells were grown in glass chamber slides and treated with 500 nM of FAM-Aβ42 at 37°C for 24, 48 and 72 h. Lysosomes were labeled with LysoTracker 30 min before the end of each incubation. Cells were then fixed and analyzed by confocal microscopy.
For quantification of Aβ uptake experiments, stable N2a cells were plated into 12-well plates at 16,250 cells/cm^2 and grown overnight. Similar to imaging assays, cells were washed twice with PBS and incubated for the indicated periods of time with pre-warmed internalization media containing 500 nM FAM -Aβ42. After incubation, cells were washed twice with PBS and non-enzymatically detached as before in 500 µL cell dissociation solution. Cells were sequentially washed once with 1 mL of cold internalization media and twice with 2 mL cold PFN. Cells were finally resuspended in PFN-1% PFA and analyzed by FACS as before. For MEF-1 and MEF-2 experiments, 5,000 cells/cm^2 were plated in 12-well plates the day before. Cells were then washed twice with PBS and incubated 4 h with pre-warmed internalization media containing 500 nM FAM-Aβ42. After completion of the incubation time, cells were processed by FACS analysis as described above for N2a cells.
LRP1 knockdown was carried out in GT1-7 cells by siRNA transfection using Lipofectamine 2000 (Invitrogen, Carlslab, CA) and 120 nM of dsRNA duplex (Ambion, Austin, TX). Briefly, cells were plated in 6-well plates the day before transfection and grown overnight. Scrambled and LRP1 siRNA duplexes were generated according to the manufacturer's instruction and complexed with Lipofectamine 2000 as previously described. FAM-Aβ42 experiments were performed 72 h after siRNA transfection and analyzed as previously described for N2a cells. For clathrin heavy chain knockdown, shRNA lentiviruses were produced in the Viral Vectors Core facility at Washington University School of Medicine. In brief, 293T cells were transfected with pLKO.1-derived constructs together with the pHR'8.2ΔR and pCMV-VSV-G packaging systems as previously described. […]

[2] = tested on: GT1-7 cells; test: FAM-Aβ42 internalization after LRP1 siRNA knockdown, FACS; format: cell-based; details: 500 nM FAM-Aβ42, 37°C, 4 h, 72 h after LRP1 siRNA; FACS of pronase-treated cells
Experimental: To rule out cell type-specific effects and artifacts due to the expression of LRP1 minireceptor, we performed similar FAM-Aβ42 uptake experiments in GT1-7 neuronal cells with reduced endogenous LRP1 levels by siRNA knockdown (Fig. 3A), and in mouse embryonic fibroblasts from both wild-type (MEF1) and LRP1 knockout mice (MEF2) (Fig. 3B). GT1-7 cells were plated and treated as indicated in the Experimental Procedures and GT1-7 and MEF cells were incubated with 500 nM of FAM-Aβ42 at 37°C for 4 h. Steady-state levels of intracellular Aβ42 were determined by flow cytometric analysis of pronase-treated cells. […]
Figure 3 LRP1 mediates internalization and accumulation of Aβ42 in GT1-7 and MEF cells. […] After 72 h, cells were treated with 500 nM FAM-Aβ42 for 4 h and intracellular Aβ42 was determined by flow cytometric analyses of pronase-treated cells as described in the Experimental Procedures. […] Wild type (MEF1) and LRP1 knockout (MEF2) fibroblasts were treated with 500 nM FAM-Aβ42 for 4 h, and intracellular Aβ42 was determined by flow cytometric analyses. ** p<0.01, t-test. n = 3. C, cell lysates from GT1-7 and MEF cells treated as in A and B, analyzed by 7.5% SDS-PAGE, and Western blotted with anti-LRP1 antibodies.
For quantification of Aβ uptake experiments, stable N2a cells were plated into 12-well plates at 16,250 cells/cm^2 and grown overnight. […]

“FAM-Aβ42: FAM-Aβ42 peptide (23526) from Anaspec; amyloid-β 42 with carboxyfluorescein at the N-terminal region” was tested, and the “levels of FAM-Aβ42 in N2a-mLRP4 cells compared to N2a-pcDNA3 cells” value (“levels … compared to N2a-pcDNA3 cells” below) ([1]; 24 h, FACS of pronase-treated cells) was “slight increase”, the “levels … compared to N2a-pcDNA3 cells” value ([1]; 48 h, FACS of pronase-treated cells) was “twice the levels” and the “levels … compared to N2a-pcDNA3 cells” value ([1]; 72 h, FACS of pronase-treated cells) was “twice the levels”. The “cell-associated FAM-Aβ42 in N2a-mLRP4 cells compared to N2a-pcDNA3 cells” value ([1]; 500 nM, 48 h, FACS, pronase-treated and untreated cells) was “increases”, the “FAM-Aβ42 uptake in clathrin knocked down cells compared to control, empty lentivirus” value ([1]; N2a-mLRP4, clathrin heavy chain shRNA lentivirus, 500 nM, 48 h, FACS of pronase-treated cells) was “twofold decrease” and the “internalization of FAM-Aβ42 in cells with decreased LRP1 levels vs scrambled siRNA control” value [2] was “decrease”.
